In patent USRE48461E1, “Modulation of androgen receptor expression” (Ionis Pharmaceuticals, Inc., priority 2012, dated 2021):

Experiments:
Assay type in all cases: cell-based, human
22RV1 cells [1] = assay: 22RV1 cell proliferation, ASO in combination with MDV3100 (Example 22); conditions: for Proliferation (% untreated control) in 22RV1 without MDV-3100: RNAiMAX, 3 days
Description: 22RV1 cells were plated at 2,000 cells per well in 5% CSS medium for 48 hours. […] ISIS 549148 was included as a negative control. […] After a treatment period of 3 days, the proliferative capacity of the cancer cells was measured with CellTiter 96® AQueous One Solution Cell Proliferation kit (Promega), following the manufacturer's instructions. Results are presented in Tables 58-62 as percent inhibition of proliferation, relative to non-treated cells.

22RV1 cells [2] = assay: 22RV1 cell proliferation with/without DHT (MTT); conditions: RNAiMAX, 5 days
Description: 22RV1cells were plated at 1,500 cells per well. […] Separate sets of cells, also treated with each of the antisense oligonucleotides, were treated with DHT added on day 1 at a final concentration of 1 nM. After a treatment period of 5 days, the proliferative ability of the cancer cells was measured using the standard MTT assay. Results are presented in Table 69 as percent inhibition of proliferation, relative to non-treated cells.

TMPRSS2 mRNA [3] = assay: TMPRSS2 expression in LNCaP cells (complete, CSS+DHT medium); conditions: for Percent inhibition of TMPRSS2 expression in LNCaP cells cultured in CSS + DHT medium: CSS + DHT (1 nM) medium, 48 hrs; for Percent inhibition of TMPRSS2 expression in LNCaP cells cultured in complete medium: 48 hours
Description: Cells were plated at 1,000 cells per well. […] ISIS 549148 was included as a negative control. […] After an incubation period of 48 hours, RNA levels of AR, PSA and TMPRSS2 were measured.
Cells were plated at 2,000 cells per well and cultured in phenol red-free RPMI supplemented with 5% charcoal stripped serum (Gibco) media for 16 hours. […] ISIS 549148 was included as a negative control. […] After an incubation period of 4 hrs, DHT was added to the medium to a final concentration of 1 nM as indicated. RNAs were collected 48 hrs later and levels of AR, PSA and TMPRSS2 were measured. In the absence of DHT, AR expression in LNCaP cells was 95%, PSA expression was 7% and TMPRSS2 expression was 24% compared to the untreated control.

TMPRSS2 mRNA [4] = assay: TMPRSS2 expression in C4-2 cells; conditions: 48 hrs; for Percent inhibition of TMPRSS2 expression: C4-2 cells, CSS + DHT medium
Description: Cells were plated at 1,000 cells per well. […] After an incubation period of 48 hrs, RNA levels of AR, PSA and TMPRSS2 were measured.
Cells were plated at 2,000 cells per well and cultured in CSS media with 1 nM DHT. […] After an incubation period of 48 hrs, RNA levels of AR, PSA and TMPRSS2 were measured.

PSA mRNA = assay: PSA expression in C4-2B cells (Example 30); conditions: 48 hrs
Description: Cells were plated at 1,000 cells per well. […] ISIS 549148 was included as a negative control. […] After an incubation period of 48 hrs, RNA levels of AR, PSA and TMPRSS2 were measured.
Cells were plated at 2,000 cells per well and cultured in CSS media with 1 nM DHT. […] ISIS 549148 was included as a negative control. […] After an incubation period of 48 hrs, RNA levels of AR, PSA and TMPRSS2 were measured. In the absence of DHT, AR expression in C4-2 cells was 188%, PSA expression was 43% and TMPRSS2 expression was 27% compared to the untreated control.

TMPRSS2 mRNA [5] = assay: TMPRSS2 expression in 22RV1 cells; conditions: RNAiMax, 48 hrs
Description: Cells were plated at 1,000 cells per well. […] After an incubation period of 48 hrs, RNA levels of full length AR, the V7 variant, PSA and TMPRSS2 were measured.
After an incubation period of 48 hrs, RNA levels of full length AR, the V7 variant, PSA and TMPRSS2 were measured.
Cells were plated at 2,000 cells per well and cultured in CSS media for 16 hours. […] After 4 hrs, 1 nM DHT was added. […] After an incubation period of 48 hrs, RNA levels of AR, AR V7 variant, PSA and TMPRSS2 were measured.

GGCTACTACGCCGTCA (3-10-3 (S)-cEt gapmer, chemistry not fully specified) [ISIS 549148, reference compound]
Proliferation (% untreated control) in 22RV1 cells with 0.04 μM MDV-3100 (22RV1 cells [1]; ASO dose 0.4 nM + 0.04 μM MDV-3100): 106 % untreated control
Proliferation (% untreated control) in 22RV1 cells with 0.2 μM MDV-3100 (22RV1 cells [1]; ASO dose 0.4 nM + 0.2 μM MDV-3100): 101 % untreated control
Proliferation (% untreated control) in 22RV1 cells with 1.0 μM MDV-3100 (22RV1 cells [1]; ASO dose 0.4 nM + 1.0 μM MDV-3100): 106 % untreated control
Proliferation (% untreated control) in 22RV1 cells with 5.0 μM MDV-3100 (22RV1 cells [1]; ASO dose 0.4 nM + 5.0 μM MDV-3100): 96 % untreated control
Proliferation (% untreated control) in 22RV1 without MDV-3100 (22RV1 cells [1]; ASO dose 0.4 nM): 109 % untreated control
Proliferation (% untreated control) in 22RV1 cells with 0.04 μM MDV-3100 (22RV1 cells [1]; ASO dose 1.34 nM + 0.04 μM MDV-3100): 106 % untreated control
Proliferation (% untreated control) in 22RV1 cells with 0.2 μM MDV-3100 (22RV1 cells [1]; ASO dose 1.34 nM + 0.2 μM MDV-3100): 115 % untreated control
Proliferation (% untreated control) in 22RV1 cells with 1.0 μM MDV-3100 (22RV1 cells [1]; ASO dose 1.34 nM + 1.0 μM MDV-3100): 95 % untreated control
Proliferation (% untreated control) in 22RV1 cells with 5.0 μM MDV-3100 (22RV1 cells [1]; ASO dose 1.34 nM + 5.0 μM MDV-3100): 102 % untreated control
Proliferation (% untreated control) in 22RV1 without MDV-3100 (22RV1 cells [1]; ASO dose 1.34 nM): 109 % untreated control
Proliferation (% untreated control) in 22RV1 cells with 0.04 μM MDV-3100 (22RV1 cells [1]; ASO dose 4.0 nM + 0.04 μM MDV-3100): 100 % untreated control
Proliferation (% untreated control) in 22RV1 cells with 0.2 μM MDV-3100 (22RV1 cells [1]; ASO dose 4.0 nM + 0.2 μM MDV-3100): 110 % untreated control
Proliferation (% untreated control) in 22RV1 cells with 1.0 μM MDV-3100 (22RV1 cells [1]; ASO dose 4.0 nM + 1.0 μM MDV-3100): 98 % untreated control
Proliferation (% untreated control) in 22RV1 cells with 5.0 μM MDV-3100 (22RV1 cells [1]; ASO dose 4.0 nM + 5.0 μM MDV-3100): 98 % untreated control
Proliferation (% untreated control) in 22RV1 without MDV-3100 (22RV1 cells [1]; ASO dose 4.0 nM): 109 % untreated control
Proliferation (% untreated control) in 22RV1 cells with 0.04 μM MDV-3100 (22RV1 cells [1]; ASO dose 13.4 nM + 0.04 μM MDV-3100): 85 % untreated control
Proliferation (% untreated control) in 22RV1 cells with 0.2 μM MDV-3100 (22RV1 cells [1]; ASO dose 13.4 nM + 0.2 μM MDV-3100): 96 % untreated control
Proliferation (% untreated control) in 22RV1 cells with 1.0 μM MDV-3100 (22RV1 cells [1]; ASO dose 13.4 nM + 1.0 μM MDV-3100): 82 % untreated control
Proliferation (% untreated control) in 22RV1 cells with 5.0 μM MDV-3100 (22RV1 cells [1]; ASO dose 13.4 nM + 5.0 μM MDV-3100): 85 % untreated control
Proliferation (% untreated control) in 22RV1 without MDV-3100 (22RV1 cells [1]; ASO dose 13.4 nM): 99 % untreated control
Percent inhibition of 22RV1 cell proliferation (22RV1 cells [2]; +DHT (1 nM), ASO 1.34 nM): 0%
Percent inhibition of 22RV1 cell proliferation (22RV1 cells [2]; +DHT (1 nM), ASO 4.0 nM): 0%
Percent inhibition of 22RV1 cell proliferation (22RV1 cells [2]; +DHT (1 nM), ASO 13.4 nM): 3%
Percent inhibition of 22RV1 cell proliferation (22RV1 cells [2]; +DHT (1 nM), ASO 40.0 nM): 0%
Percent inhibition of 22RV1 cell proliferation (22RV1 cells [2]; −DHT, ASO 1.34 nM): 0%
Percent inhibition of 22RV1 cell proliferation (22RV1 cells [2]; −DHT, ASO 4.0 nM): 0%
Percent inhibition of 22RV1 cell proliferation (22RV1 cells [2]; −DHT, ASO 13.4 nM): 4%
Percent inhibition of 22RV1 cell proliferation (22RV1 cells [2]; −DHT, ASO 40.0 nM): 0%
Percent inhibition of TMPRSS2 expression in LNCaP cells cultured in CSS + DHT medium (TMPRSS2 mRNA [3]; 0.04 μM): 0%
Percent inhibition of TMPRSS2 expression in LNCaP cells cultured in CSS + DHT medium (TMPRSS2 mRNA [3]; 0.2 μM): 0%
Percent inhibition of TMPRSS2 expression in LNCaP cells cultured in CSS + DHT medium (TMPRSS2 mRNA [3]; 1 μM): 1%
Percent inhibition of TMPRSS2 expression in LNCaP cells cultured in CSS + DHT medium (TMPRSS2 mRNA [3]; 5.0 μM): 10%
Percent inhibition of TMPRSS2 expression in LNCaP cells cultured in complete medium (TMPRSS2 mRNA [3]; 0.04 μM): 0%
Percent inhibition of TMPRSS2 expression in LNCaP cells cultured in complete medium (TMPRSS2 mRNA [3]; 0.2 μM): 0%
Percent inhibition of TMPRSS2 expression in LNCaP cells cultured in complete medium (TMPRSS2 mRNA [3]; 1 μM): 0%
Percent inhibition of TMPRSS2 expression in LNCaP cells cultured in complete medium (TMPRSS2 mRNA [3]; 5.0 μM): 0%
Percent inhibition of TMPRSS2 expression (TMPRSS2 mRNA [4]; 0.04 μM): 3%
Percent inhibition of TMPRSS2 expression (TMPRSS2 mRNA [4]; 0.2 μM): 0%
Percent inhibition of TMPRSS2 expression (TMPRSS2 mRNA [4]; 1 μM): 22%
Percent inhibition of TMPRSS2 expression (TMPRSS2 mRNA [4]; 5.0 μM): 28%
Percent inhibition of TMPRSS2 expression in C4-2 cells cultured in complete medium (TMPRSS2 mRNA [4]; 0.04 μM): 2%
Percent inhibition of TMPRSS2 expression in C4-2 cells cultured in complete medium (TMPRSS2 mRNA [4]; 0.2 μM): 7%
Percent inhibition of TMPRSS2 expression in C4-2 cells cultured in complete medium (TMPRSS2 mRNA [4]; 1 μM): 10%
Percent inhibition of TMPRSS2 expression in C4-2 cells cultured in complete medium (TMPRSS2 mRNA [4]; 5.0 μM): 0%
Percent inhibition of PSA expression (PSA mRNA; CSS + DHT medium, 0.04 μM): 0%
Percent inhibition of PSA expression (PSA mRNA; CSS + DHT medium, 0.2 μM): 0%
Percent inhibition of PSA expression (PSA mRNA; CSS + DHT medium, 1 μM): 0%
Percent inhibition of PSA expression (PSA mRNA; CSS + DHT medium, 5.0 μM): 0%
Percent inhibition of PSA expression (PSA mRNA; complete medium, 0.04 μM): 3%
Percent inhibition of PSA expression (PSA mRNA; complete medium, 0.2 μM): 11%
Percent inhibition of PSA expression (PSA mRNA; complete medium, 1 μM): 18%
Percent inhibition of PSA expression (PSA mRNA; complete medium, 5.0 μM): 14%
Percent inhibition of TMPRSS2 expression (TMPRSS2 mRNA [5]; CSS + DHT medium, 1.34 nM): 0%
Percent inhibition of TMPRSS2 expression (TMPRSS2 mRNA [5]; CSS + DHT medium, 4.0 nM): 3%
Percent inhibition of TMPRSS2 expression (TMPRSS2 mRNA [5]; CSS + DHT medium, 13.4 nM): 1%
Percent inhibition of TMPRSS2 expression (TMPRSS2 mRNA [5]; complete medium, 1.34 nM): 15%
Percent inhibition of TMPRSS2 expression (TMPRSS2 mRNA [5]; complete medium, 4.0 nM): 9%
Percent inhibition of TMPRSS2 expression (TMPRSS2 mRNA [5]; complete medium, 13.4 nM): 14%
Percent inhibition of TMPRSS2 expression (TMPRSS2 mRNA [5]; complete medium, 40 nM): 4%
